Reference: PubChem BioAssay (NCI)
Where “and” joins values, the source holds several entries; their conditions need not be identical. Equal entries are not always repeated.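 Interpolation was linear, between the two tested concentrations surrounding the appropriate level; five concentrations were tested over 48 hours in 96-well plates. GI50: concentration for 50% inhibition of growth. At the TGI there is no net growth.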

What was measured:
Assay in all cases: NCI tumour cell line growth inhibition, 48 h
SF-268 CNS = test system: SF-268 CNS
NCI-H522 lung = test system: NCI-H522 lung
SF-539 CNS = test system: SF-539 CNS
M14 melanoma = test system: M14 melanoma
TK-10 renal = test system: TK-10 renal
LOX IMVI melanoma = test system: LOX IMVI melanoma
COLO 205 colon = test system: COLO 205 colon
PC-3 prostate = test system: PC-3 prostate
MDA-MB-435 = test system: MDA-MB-435
SN12C renal = test system: SN12C renal

SMILES: CC1=C2C(=CO[C@H](C)[C@H]2C)C(=O)C(C(=O)O)=C1O
- GI50 (SF-268 CNS): 22 µM
- TGI (SF-268 CNS): 59.2 µM and 38.2 µM
- GI50 (NCI-H522 lung): 18.5 µM
- TGI (NCI-H522 lung): 36.4 µM and 34.4 µM
- GI50 (SF-539 CNS): 23.9 µM
- TGI (SF-539 CNS): 30.3 µM and 59.2 µM
- TGI (M14 melanoma): 60.9 µM
- TGI (TK-10 renal): 63.7 µM
- GI50 (LOX IMVI melanoma): 20.1 µM
- TGI (LOX IMVI melanoma): 44.7 µM and 53.8 µM
- GI50 (COLO 205 colon): 22.1 µM
- TGI (COLO 205 colon): 77.3 µM and 45.8 µM
- TGI (PC-3 prostate): > 85.3 µM
- TGI (MDA-MB-435): 76.1 µM
- GI50 (SN12C renal): 9.07 µM
- TGI (SN12C renal): 54.8 µM and 26.2 µM

SMILES: COc1ccc(-c2oc3cc(O)cc(O)c3c(=O)c2OC)cc1
- TGI (SF-268 CNS): 78.2 µM
- TGI (NCI-H522 lung): 9.7 µM
- TGI (M14 melanoma): > 100 µM
- TGI (TK-10 renal): > 100 µM
- TGI (LOX IMVI melanoma): > 100 µM
- TGI (COLO 205 colon): > 100 µM
- TGI (PC-3 prostate): > 100 µM
- TGI (MDA-MB-435): > 100 µM

SMILES: O=C(Cc1ccc(Cl)c(Cl)c1)NCC1(N2CCCCC2)CCCCC1
- TGI (SF-268 CNS): > 100 µM
- TGI (NCI-H522 lung): > 100 µM
- TGI (M14 melanoma): 34.4 µM
- TGI (TK-10 renal): > 100 µM
- TGI (LOX IMVI melanoma): > 100 µM
- TGI (PC-3 prostate): > 100 µM
- TGI (MDA-MB-435): > 100 µM
- TGI (SN12C renal): > 100 µM

SMILES: Cc1cc2c([nH]c3ccccc32)c(O)c1-c1c(C)cc2c([nH]c3ccccc32)c1O
- TGI (SF-268 CNS): 27.4 µM
- TGI (NCI-H522 lung): 31.5 µM
- TGI (SF-539 CNS): 31.7 µM
- TGI (M14 melanoma): 29.8 µM
- TGI (TK-10 renal): 31.2 µM
- TGI (LOX IMVI melanoma): 32.7 µM
- TGI (PC-3 prostate): 25.9 µM
- GI50 (MDA-MB-435): 15 µM
- TGI (MDA-MB-435): 28.2 µM
- TGI (SN12C renal): 6.44 µM

SMILES: Cc1nnc2n1N=C(c1ccc(Cl)cc1Cl)/C(=C/c1ccc(-c3ccc([N+](=O)[O-])cc3Cl)o1)S2
- GI50 (SF-268 CNS): 24.3 µM
- TGI (SF-268 CNS): 66.7 µM
- GI50 (NCI-H522 lung): 20.9 µM
- TGI (NCI-H522 lung): 44.9 µM
- GI50 (SF-539 CNS): 18.5 µM
- TGI (SF-539 CNS): 36.6 µM
- GI50 (TK-10 renal): 18.4 µM
- TGI (TK-10 renal): 34.8 µM
- GI50 (LOX IMVI melanoma): 12.3 µM
- TGI (LOX IMVI melanoma): 27.4 µM
- GI50 (COLO 205 colon): 54.8 µM
- TGI (COLO 205 colon): > 100 µM
- GI50 (PC-3 prostate): 31.3 µM
- TGI (PC-3 prostate): > 100 µM
- GI50 (MDA-MB-435): 13.5 µM
- TGI (MDA-MB-435): 29 µM
- GI50 (SN12C renal): 17.8 µM
- TGI (SN12C renal): 40.9 µM

SMILES: C/C(=N\NC(=S)N(C)C)c1cccnn1
- TGI (NCI-H522 lung): > 100 µM
- TGI (SF-539 CNS): 1.65 µM
- TGI (M14 melanoma): > 100 µM
- TGI (TK-10 renal): > 100 µM
- TGI (LOX IMVI melanoma): > 51.2 µM
- TGI (COLO 205 colon): > 100 µM
- TGI (PC-3 prostate): > 100 µM
- TGI (MDA-MB-435): > 100 µM
- TGI (SN12C renal): > 100 µM

SMILES: O=C1NC(=O)C(C(CC(=O)c2ccc(Cl)cc2)c2ccc(Cl)cc2)C(=O)N1 (stereo not drawn)
- TGI (SF-268 CNS): > 100 µM
- TGI (NCI-H522 lung): > 100 µM
- TGI (SF-539 CNS): > 100 µM
- TGI (M14 melanoma): > 100 µM
- TGI (LOX IMVI melanoma): > 100 µM
- TGI (PC-3 prostate): > 100 µM
- TGI (MDA-MB-435): > 100 µM
- TGI (SN12C renal): > 100 µM

SMILES: C/C(=N\Nc1nc2ccccc2n1C)c1cc2ccccc2cn1
- TGI (SF-268 CNS): 11.7 µM
- TGI (NCI-H522 lung): 4.67 µM
- TGI (SF-539 CNS): 14.5 µM
- TGI (M14 melanoma): 2.81 µM
- TGI (TK-10 renal): 6.86 µM
- TGI (LOX IMVI melanoma): 4.33 µM
- TGI (PC-3 prostate): > 20.7 µM
- TGI (MDA-MB-435): 9.89 µM
- TGI (SN12C renal): 3.29 µM

SMILES: COc1ccc2cc(CNCCCCCCNCc3ccc4cc(OC)ccc4c3)ccc2c1
- TGI (NCI-H522 lung): 1.76 µM
- TGI (SF-539 CNS): 3.05 µM
- TGI (M14 melanoma): 0.315 µM
- TGI (TK-10 renal): 3.28 µM
- TGI (LOX IMVI melanoma): 0.325 µM
- TGI (COLO 205 colon): 0.291 µM
- TGI (PC-3 prostate): 0.918 µM
- TGI (MDA-MB-435): 0.497 µM
- TGI (SN12C renal): 2.67 µM

SMILES: CC(C)/C(Cl)=N\OC(NC(=O)P(=O)(c1ccccc1)c1ccccc1)(C(F)(F)F)C(F)(F)F
- TGI (SF-268 CNS): 31.9 µM
- TGI (SF-539 CNS): 27.6 µM
- TGI (M14 melanoma): 15.8 µM
- TGI (TK-10 renal): 25.2 µM
- TGI (LOX IMVI melanoma): 29.6 µM
- TGI (COLO 205 colon): 26.5 µM
- TGI (PC-3 prostate): 34.4 µM
- TGI (MDA-MB-435): 30.6 µM
- TGI (SN12C renal): 26.6 µM

SMILES: CCOP(=O)(OCC)/C(=C/c1cccs1)CC(C)=O
- TGI (SF-268 CNS): > 100 µM
- TGI (SF-539 CNS): > 100 µM
- TGI (M14 melanoma): > 100 µM
- TGI (TK-10 renal): > 100 µM
- TGI (LOX IMVI melanoma): > 100 µM
- TGI (COLO 205 colon): > 100 µM
- TGI (PC-3 prostate): > 100 µM
- TGI (MDA-MB-435): > 100 µM
- TGI (SN12C renal): > 100 µM

SMILES: Cc1c(C(=O)OCc2ccccc2)[n+](=O)c2cc(Cl)c(Cl)cc2n1[O-]
- TGI (SF-268 CNS): 39.8 µM
- TGI (SF-539 CNS): 55.9 µM
- TGI (M14 melanoma): 28.3 µM
- TGI (TK-10 renal): 40.3 µM
- TGI (LOX IMVI melanoma): 35.7 µM
- TGI (COLO 205 colon): 32.2 µM
- TGI (PC-3 prostate): 55 µM
- TGI (MDA-MB-435): 42.4 µM
- TGI (SN12C renal): 45.3 µM

SMILES: COc1ccc(Nc2ccc3ccccc3c2-c2c(O)ccc3ccccc23)cc1
- TGI (SF-268 CNS): 35.9 µM
- TGI (NCI-H522 lung): 32.8 µM
- TGI (SF-539 CNS): 51.1 µM
- TGI (TK-10 renal): 75.3 µM
- TGI (LOX IMVI melanoma): 37.7 µM
- TGI (COLO 205 colon): 47 µM
- TGI (PC-3 prostate): 29.3 µM
- TGI (MDA-MB-435): 20.3 µM
- TGI (SN12C renal): 35.1 µM

SMILES: COC(=O)C1C(=O)N(C)C(=O)N2CCCC12 (stereo not drawn)
- TGI (SF-268 CNS): > 100 µM
- TGI (NCI-H522 lung): > 100 µM
- TGI (SF-539 CNS): > 100 µM
- TGI (M14 melanoma): > 100 µM
- TGI (TK-10 renal): > 100 µM
- TGI (LOX IMVI melanoma): > 100 µM
- TGI (COLO 205 colon): > 100 µM
- TGI (PC-3 prostate): > 100 µM
- TGI (MDA-MB-435): > 100 µM

SMILES: C=CCOn1c(C=C)nc2ccc(C)cc21
- TGI (SF-268 CNS): 80.2 µM
- TGI (NCI-H522 lung): 32.9 µM
- TGI (M14 melanoma): 32.6 µM
- TGI (TK-10 renal): 32.4 µM
- TGI (LOX IMVI melanoma): 37.5 µM
- TGI (COLO 205 colon): 26.9 µM
- TGI (PC-3 prostate): 31 µM
- TGI (MDA-MB-435): 44.5 µM
- TGI (SN12C renal): 33.4 µM

SMILES: NCC(O)CSCc1ccc(Cl)cc1 (stereo not drawn)
- TGI (SF-268 CNS): > 100 µM
- TGI (NCI-H522 lung): > 100 µM
- TGI (M14 melanoma): > 100 µM
- TGI (TK-10 renal): > 100 µM
- TGI (LOX IMVI melanoma): > 100 µM
- TGI (COLO 205 colon): > 100 µM
- TGI (PC-3 prostate): > 100 µM
- TGI (MDA-MB-435): > 100 µM
- TGI (SN12C renal): > 100 µM
